Data set [1] is described as follows: Solubility in water. In kind it is physicochemical.
In data set [2] the test system is anaerobes isolated from the oral cavity. Kind of data set: Susceptibility (MIC), agar dilution, anaerobes from the oral cavity. In kind it is cell-based, anaerobic bacteria. To be noted: explored range 0.2 to 3.5 mg/ml. Here is the method: (§1) The investigations included more than hundred strains isolated from the oral cavity: : anaerobes, microaerophilic bacteria, aerobes, Streptococcus spp. and yeast like fungi. The microorganisms were isolated from saliva, mucosal membrane, gingival pockets and caries decay. The susceptibility (MIC) of bacteria and yeastlike fungi were determined by means of plate dilution technique in agar.
(§2) The investigated samples were dissolved in sterile distilled water (immediately before the experiment) to obtain the following concentrations: 3.5, 1.7, 0.8, 0.4 and 0.2 mg/ml and were added into appropriate agar. The plates were inoculated using a Steers multipoint inoculator. Inoculum contained 10^6 CFU/spot. In each experimental series, the growth of strains on the culture medium without the compounds investigated was checked. The concentration at which no macroscopic growth of the microbes was observed on the medium was regarded as the lowest concentration, inhibiting the growth of microbes (MIC). The examinations of the susceptibility of microbes to the peptides were carried out twice.
(§3) Anaerobes. The susceptibility of bacteria was determined by means of the agar dilution methods with Brucella agar supplemented with 5% defibrinated sheep's blood, menadione and hemin. Sample solutions with concentrations from of 3.5-0.2 mg/ml were added into agar. The agar plate without investigated samples was included as a bacterial growth control. The inoculum of 10^6 CFU/ml was applied to the agar plates with Steers replicator. Incubation was performed for 48 hrs at 37° C. (310° K) in anaerobic jars containing a mixture of 10% CO2, 10% H2 and 80% N2, in the presence of palladium catalyst and indicator of anaerobiosis. Microaerophilic bacteria. The susceptibility of bacteria was determined by means of the agar dilution methods with Brucella agar supplemented with 5% sheep's blood. Samples solutions with concentrations from of 3.5- 0.2 mg/ml were added into agar. The agar plate without investigated samples was included as a bacterial growth control. The inoculum of 10^6 CFU/ml was applied to the agar plates with Steers replicator. The incubation was performed at 37° C. in anaerobic jars with Campy Pak (bio Merieux) for 48 hours. Streptococcus spp. The susceptibility of bacteria was determined by means of the agar dilution methods with Mueller-Hinton agar supplemented with 5% sheep's blood. Samples solutions with concentrations from of 3.5- 0.2 mg/ml were added into agar. The agar plate without investigated samples was included as a bacterial growth control. The inoculum of 10^6 CFU/ml was applied to the agar plates with Steers replicator. Incubation was performed for 24 hrs at 37° C. (310° K) in anaerobic jars containing a mixture of 10% CO2 and 90% N2. Aerobes. The susceptibility to investigated samples was determined by means of the plate dilution technique in Mueller-Hinton agar. Samples solutions with concentrations from of 3.5- 0.2 mg/ml were added into agar. The agar plate without investigated samples was included as a bacterial growth control. The inoculum of 10^6 CFU/ml was applied to the agar plates with Steers replicator. Plates were incubated for 24 hrs in 37° C. under aerobic conditions. Yeast like fungi. The susceptibility of fungi to investigated samples was determined by means of the plate dilution technique in Sabouraud's agar. Samples solutions with concentrations from of 3.5- 0.2 mg/ml were added into agar. […]
On the technique in general: In agar dilution, organisms are placed on agar that contains the substance at set levels.

The subject of data set [3] is aerobes isolated from the oral cavity. Kind of data set: Susceptibility (MIC), agar dilution, aerobes from the oral cavity. In kind it is cell-based, aerobic bacteria. To be noted: explored range 0.2 to 3.5 mg/ml. Here is the method:
as §1, §2
as §3, with “control. […]” for “control. The inoculum of 10^6 CFU/ml was applied to the agar plates with Steers replicator. Incubation was performed for 24 hrs at 37° C. (310° K) in anaerobic jars containing a mixture of 10% CO2 and 90% N2. Aerobes.”, “agar. […]” for “agar. Samples solutions with concentrations from of 3.5- 0.2 mg/ml were added into agar. The agar plate without investigated samples was included as a bacterial growth control. The inoculum of 10^6 CFU/ml was applied to the agar plates with Steers replicator. Plates were incubated for 24 hrs in 37° C. under aerobic conditions. Yeast like fungi.”, “agar.” for “agar. Samples solutions with concentrations from of 3.5- 0.2 mg/ml were added into agar.”

On to “3-hydroxyphthalated e-polylysine [Product 27]”, for which, in data set [1], the “pH at which soluble in water” value is recorded as “above 9”. In data set [2], the activity against anaerobes result is listed as “less effective”. Moreover, the activity against aerobes entry in data set [3] is on record as “not active”.
